The values that follow are results of earlier work, collected in article PMC9109461, “Challenges and opportunities in the development of metal-based anticancer theranostic agents” (Bioscience Reports, 2022).

One data set concerns HeLa cells. Set-up: method as in PMID 28948792. Particulars: MTT assay. A general note: Tetrazolium dyes change colour on reduction, which living cells bring about.
The test system of another data set is CaSki cells. Further details: method as in PMID 30551086.
The test system of the next data set is A549R. Set-up: method as in PMID 30888144. Particulars: A549R cells.

Usually IC50 stands for the midpoint of a concentration-inhibition curve. In the case of [(cis-Pt(NH3)2Cl2] [cisplatin], the IC50 is 3 ± 1.2 µM in the data set on HeLa cells, 4.2 µM in the data set with CaSki cells and 51.3 ± 1.9 µM in the data set with A549R.
